Key:
CDK13 = CDK13 (Homo sapiens, UniProt Q14004); assay: Western blot degradation of CDK13 (Example 2); type: cell-based; set-up: degradation of CDK12/13 protein in leukemia cells KASUMI-1, MV4-11, and Jurkat; endogenous in cells; conditions: DC50 classes, cell line not given; for DC50: read-out: CDK13 degradation Activity
Procedure: (§1) Western blot was used to determine the degradation of CDK12/13 protein in leukemia cells KASUMI-1, MV4-11, and Jurkat. The two compounds with the best degradation effects were further validated for their ability to degrade CDK12/13 protein in breast cancer cells MDA-MB-231 using a concentration gradient.
(§2) • Cell lines: KASUMI-1, MV4-11, Jurkat, or MDA-MB-231 • Culture medium: DMEM/RIPM-1640+10% Hyclone serum • Compound dissolution method: Compounds were dissolved in DMSO to prepare a 50 mM stock solution, and then diluted to the corresponding concentrations.
(§3) (1) In vitro cell culture: The selected cells were cultured in a 37 °C constant temperature incubator with 5% CO2. Once the cell density reached 70-90%, they were passaged for subsequent experiments.
(§4) (2) Cell seeding: Cells were digested, and the cell suspension was transferred to a 1.5 mL Eppendorf tube. After centrifugation at 1,000 rpm for 5 min, the cells were resuspended in 2 mL of culture medium and counted. The cell suspension was seeded in a 24-well plate at a density of 200,000 cells per well and allowed to adhere for 8-12 h.
(§5) (3) Compound treatment: The 50 mM compound stock solution was diluted with cell culture medium to a final concentration of 0.01 μM-3 μM. Cells were incubated in a 37 °C incubator with 5% CO2 for 3 h-48 h. The DMSO group served as the negative control.
(§6) At the end of the treatment time, the cells were collected and washed once with PBS. An appropriate volume of 4% SDS was added to lyse the cells, and the mixture was sonicated until no longer viscous. After centrifugation at 12,000 rpm at room temperature for 30 min, the supernatant was transferred to a new EP tube for protein quantification.
(§7) The exposure results were quantitatively analyzed using Image J software. First, the grayscale values of the bands were calculated using Image J. Then, the grayscale value of the target protein was divided by the grayscale value of the internal reference protein for normalization. The calculation formula is: […]
(§8) Where A is the grayscale value and D is the degradation rate.
(§9) In the figures, CDK12 and CDK13 are the target proteins under study, and β-Actin and GAPDH are the internal reference proteins. Internal reference proteins are used to indicate the total protein amount in each experimental group for quantitative analysis.

CDK12 = CDK12 (Homo sapiens, UniProt Q9NYV4); assay: Western blot degradation of CDK12 (Example 2); type: cell-based; set-up: degradation of CDK12/13 protein in leukemia cells KASUMI-1, MV4-11, and Jurkat; endogenous in cells; conditions: DC50 classes, cell line not given; for DC50: read-out: CDK12 degradation Activity
Procedure: as §1, §2, §3, §4, §5, §6, §7, §8, §9

CDK12, sequence (Q9NYV4 whole entry): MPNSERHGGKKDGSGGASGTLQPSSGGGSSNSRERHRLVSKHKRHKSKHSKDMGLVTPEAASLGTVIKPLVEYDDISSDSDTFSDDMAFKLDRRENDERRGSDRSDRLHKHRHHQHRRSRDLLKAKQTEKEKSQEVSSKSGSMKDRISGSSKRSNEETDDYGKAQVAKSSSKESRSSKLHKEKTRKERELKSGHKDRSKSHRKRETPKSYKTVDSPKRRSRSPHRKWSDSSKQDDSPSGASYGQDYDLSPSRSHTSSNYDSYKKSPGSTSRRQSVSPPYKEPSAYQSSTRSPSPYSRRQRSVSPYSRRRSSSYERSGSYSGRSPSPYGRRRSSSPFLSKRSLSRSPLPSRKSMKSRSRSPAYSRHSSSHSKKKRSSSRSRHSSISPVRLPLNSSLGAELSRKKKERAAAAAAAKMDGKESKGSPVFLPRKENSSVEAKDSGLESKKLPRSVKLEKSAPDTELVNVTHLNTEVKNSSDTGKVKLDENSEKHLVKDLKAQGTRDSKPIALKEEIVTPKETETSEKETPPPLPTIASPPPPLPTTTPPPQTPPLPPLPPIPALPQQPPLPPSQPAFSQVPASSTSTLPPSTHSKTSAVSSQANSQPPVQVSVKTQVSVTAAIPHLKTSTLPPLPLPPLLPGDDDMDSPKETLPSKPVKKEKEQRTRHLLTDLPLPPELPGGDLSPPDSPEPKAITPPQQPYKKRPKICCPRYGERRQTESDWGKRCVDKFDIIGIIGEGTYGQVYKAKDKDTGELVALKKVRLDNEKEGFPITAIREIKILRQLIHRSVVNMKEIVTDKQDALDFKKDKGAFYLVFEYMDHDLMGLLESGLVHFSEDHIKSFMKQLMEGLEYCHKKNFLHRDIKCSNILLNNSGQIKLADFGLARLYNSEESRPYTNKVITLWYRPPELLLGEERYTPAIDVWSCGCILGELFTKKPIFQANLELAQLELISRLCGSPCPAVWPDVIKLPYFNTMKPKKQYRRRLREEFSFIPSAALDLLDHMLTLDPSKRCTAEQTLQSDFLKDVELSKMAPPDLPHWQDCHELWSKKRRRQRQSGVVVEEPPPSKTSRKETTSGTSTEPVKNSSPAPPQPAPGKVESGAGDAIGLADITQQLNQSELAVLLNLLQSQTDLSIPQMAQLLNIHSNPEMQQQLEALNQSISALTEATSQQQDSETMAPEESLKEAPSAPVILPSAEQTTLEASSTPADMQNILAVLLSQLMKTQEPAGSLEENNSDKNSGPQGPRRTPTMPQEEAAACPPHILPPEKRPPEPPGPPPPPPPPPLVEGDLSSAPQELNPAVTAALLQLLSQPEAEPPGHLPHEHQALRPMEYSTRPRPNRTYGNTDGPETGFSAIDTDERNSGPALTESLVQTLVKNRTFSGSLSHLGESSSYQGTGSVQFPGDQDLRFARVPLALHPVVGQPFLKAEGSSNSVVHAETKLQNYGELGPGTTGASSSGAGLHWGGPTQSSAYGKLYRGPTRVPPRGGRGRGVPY
CDK12, sequence (O75909 whole entry partner): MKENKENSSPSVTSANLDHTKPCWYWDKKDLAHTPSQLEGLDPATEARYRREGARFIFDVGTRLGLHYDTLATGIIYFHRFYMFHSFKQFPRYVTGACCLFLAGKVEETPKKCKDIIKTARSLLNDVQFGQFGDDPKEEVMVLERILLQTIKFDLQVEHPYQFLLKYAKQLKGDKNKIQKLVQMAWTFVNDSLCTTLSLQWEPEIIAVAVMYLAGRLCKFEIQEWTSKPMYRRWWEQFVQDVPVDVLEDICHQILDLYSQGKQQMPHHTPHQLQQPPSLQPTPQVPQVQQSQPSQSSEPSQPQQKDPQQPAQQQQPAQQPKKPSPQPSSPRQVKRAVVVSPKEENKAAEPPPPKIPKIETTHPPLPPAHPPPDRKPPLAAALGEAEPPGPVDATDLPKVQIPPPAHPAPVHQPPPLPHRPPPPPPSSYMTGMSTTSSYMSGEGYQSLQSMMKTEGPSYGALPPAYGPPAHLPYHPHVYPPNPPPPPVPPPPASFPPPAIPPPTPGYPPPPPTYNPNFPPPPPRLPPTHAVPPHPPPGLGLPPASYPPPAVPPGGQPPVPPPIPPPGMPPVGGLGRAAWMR
CDK13, sequence (Q14004 whole entry): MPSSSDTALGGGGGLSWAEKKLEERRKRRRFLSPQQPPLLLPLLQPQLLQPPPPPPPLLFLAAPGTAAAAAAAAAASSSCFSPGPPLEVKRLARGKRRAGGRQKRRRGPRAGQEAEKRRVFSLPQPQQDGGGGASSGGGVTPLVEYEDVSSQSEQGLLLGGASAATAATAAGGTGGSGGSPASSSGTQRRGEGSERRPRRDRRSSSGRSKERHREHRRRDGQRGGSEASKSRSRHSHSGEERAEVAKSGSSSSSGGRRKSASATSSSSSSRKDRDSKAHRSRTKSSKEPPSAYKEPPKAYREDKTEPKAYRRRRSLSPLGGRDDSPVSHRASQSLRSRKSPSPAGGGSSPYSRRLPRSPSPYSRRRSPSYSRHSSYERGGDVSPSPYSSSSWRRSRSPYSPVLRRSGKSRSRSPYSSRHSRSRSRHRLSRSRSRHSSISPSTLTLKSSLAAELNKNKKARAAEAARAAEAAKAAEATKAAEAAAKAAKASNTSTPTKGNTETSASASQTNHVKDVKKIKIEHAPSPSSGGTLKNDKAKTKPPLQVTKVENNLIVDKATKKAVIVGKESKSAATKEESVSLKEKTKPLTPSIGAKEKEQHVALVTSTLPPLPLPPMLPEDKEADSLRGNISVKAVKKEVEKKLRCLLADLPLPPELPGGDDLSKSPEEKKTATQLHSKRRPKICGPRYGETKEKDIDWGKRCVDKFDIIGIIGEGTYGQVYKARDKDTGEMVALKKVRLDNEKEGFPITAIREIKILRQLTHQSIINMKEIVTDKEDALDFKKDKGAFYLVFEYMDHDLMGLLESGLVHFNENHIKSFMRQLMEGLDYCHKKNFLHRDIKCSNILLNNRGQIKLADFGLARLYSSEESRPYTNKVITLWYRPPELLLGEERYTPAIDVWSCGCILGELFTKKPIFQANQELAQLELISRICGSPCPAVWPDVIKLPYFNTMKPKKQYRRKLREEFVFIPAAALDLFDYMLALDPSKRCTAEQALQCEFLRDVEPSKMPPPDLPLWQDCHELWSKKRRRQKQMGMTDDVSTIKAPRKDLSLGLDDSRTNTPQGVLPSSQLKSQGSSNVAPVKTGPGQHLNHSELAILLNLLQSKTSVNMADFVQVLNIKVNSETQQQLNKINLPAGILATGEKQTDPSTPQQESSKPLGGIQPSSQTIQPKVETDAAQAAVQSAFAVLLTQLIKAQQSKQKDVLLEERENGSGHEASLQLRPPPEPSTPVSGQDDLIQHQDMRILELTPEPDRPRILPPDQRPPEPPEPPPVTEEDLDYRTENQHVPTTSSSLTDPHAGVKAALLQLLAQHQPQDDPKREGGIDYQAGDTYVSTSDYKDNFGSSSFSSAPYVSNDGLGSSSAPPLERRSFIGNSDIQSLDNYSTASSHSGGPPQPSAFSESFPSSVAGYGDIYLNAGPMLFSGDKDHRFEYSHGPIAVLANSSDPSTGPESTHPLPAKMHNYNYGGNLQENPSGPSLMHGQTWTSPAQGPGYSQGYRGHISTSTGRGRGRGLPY
CDK13, sequence (O75909 whole entry partner): as the sequence (O75909 whole entry partner) above

SMILES | DC50 (CDK13) [nM] | DC50 (CDK12) [nM] | CDK13 degradation Activity (CDK13) | CDK12 degradation Activity (CDK12)
Cc1ncsc1-c1ccc([C@H](C)NC(=O)[C@@H]2C[C@@H](O)CN2C(=O)[C@@H](NC(=O)CN2CCN(c3ccc(-c4ccc(N(C(=O)NCc5ccccc5)[C@H]5CC[C@H](Nc6ccc(C#N)cn6)CC5)cc4)cn3)CC2)C(C)(C)C)cc1 (racemic) [Formula 73] | < 100 | < 100 |  | 
Cc1ncsc1-c1ccc([C@H](C)NC(=O)[C@@H]2C[C@@H](O)CN2C(=O)[C@@H](NC(=O)CN2CCN(c3ncc(-c4ccc(N(C(=O)NCc5ccccc5)[C@H]5CC[C@H](Nc6ccc(C#N)cn6)CC5)cc4)cn3)CC2)C(C)(C)C)cc1 (racemic) [Formula 81] | < 100 | < 100 |  | 
Cc1ncsc1-c1ccc([C@H](C)NC(=O)[C@@H]2C[C@@H](O)CN2C(=O)[C@@H](NC(=O)COCCOc2ccc(-c3ccc(N(C(=O)NCc4ccccc4)[C@H]4CC[C@H](Nc5ccc(C#N)cn5)CC4)cc3)cn2)C(C)(C)C)cc1 [Formula 1] | 100 to 500 | 100 to 500 |  | 
Cc1ncsc1-c1ccc([C@H](C)NC(=O)[C@@H]2C[C@@H](O)CN2C(=O)[C@@H](NC(=O)COCCOCCOc2ccc(-c3ccc(N(C(=O)NCc4ccccc4)[C@H]4CC[C@H](Nc5ccc(C#N)cn5)CC4)cc3)cn2)C(C)(C)C)cc1 [Formula 2] | 500 to 1000 | 1000 to 3000 |  | 
Cc1ncsc1-c1ccc([C@H](C)NC(=O)[C@@H]2C[C@@H](O)CN2C(=O)[C@@H](NC(=O)COCCOCCOCCOc2ccc(-c3ccc(N(C(=O)NCc4ccccc4)[C@H]4CC[C@H](Nc5ccc(C#N)cn5)CC4)cc3)cn2)C(C)(C)C)cc1 [Formula 3] | 3000 to 10000 | 3000 to 10000 |  | 
Cc1ncsc1-c1ccc([C@H](C)NC(=O)[C@@H]2C[C@@H](O)CN2C(=O)[C@@H](NC(=O)COCCOCCOCCOCCOc2ccc(-c3ccc(N(C(=O)NCc4ccccc4)[C@H]4CC[C@H](Nc5ccc(C#N)cn5)CC4)cc3)cn2)C(C)(C)C)cc1 [Formula 4] | 3000 to 10000 | 3000 to 10000 |  | 
Cc1ncsc1-c1ccc([C@H](C)NC(=O)[C@@H]2C[C@@H](O)CN2C(=O)[C@@H](NC(=O)COc2ccc(-c3ccc(N(C(=O)NCc4ccccc4)[C@H]4CC[C@H](Nc5ccc(C#N)cn5)CC4)cc3)cn2)C(C)(C)C)cc1 [Formula 6] | 500 to 1000 | 1000 to 3000 |  | 
Cc1ncsc1-c1ccc([C@H](C)NC(=O)[C@@H]2C[C@@H](O)CN2C(=O)[C@@H](NC(=O)COCCN2CCN(c3ccc(N(C(=O)NCc4ccccc4)[C@H]4CC[C@H](Nc5ccc(C#N)cn5)CC4)cc3)CC2)C(C)(C)C)cc1 [Formula 7] | 3000 to 10000 | 1000 to 3000 |  | 
Cc1ncsc1-c1ccc([C@H](C)NC(=O)[C@@H]2C[C@@H](O)CN2C(=O)[C@@H](NC(=O)COCCOCCN2CCN(c3ccc(N(C(=O)NCc4ccccc4)[C@H]4CC[C@H](Nc5ccc(C#N)cn5)CC4)cc3)CC2)C(C)(C)C)cc1 [Formula 8] | 500 to 1000 | 500 to 1000 |  | 
Cc1ncsc1-c1ccc([C@H](C)NC(=O)[C@@H]2C[C@@H](O)CN2C(=O)[C@@H](NC(=O)COCCOCCOCCN2CCN(c3ccc(N(C(=O)NCc4ccccc4)[C@H]4CC[C@H](Nc5ccc(C#N)cn5)CC4)cc3)CC2)C(C)(C)C)cc1 [Formula 9] | 3000 to 10000 | 3000 to 10000 |  | 
Cc1ncsc1-c1ccc([C@H](C)NC(=O)[C@@H]2C[C@@H](O)CN2C(=O)[C@@H](NC(=O)CN2CCN(c3ccc(N(C(=O)NCc4ccccc4)[C@H]4CC[C@H](Nc5ccc(C#N)cn5)CC4)cc3)CC2)C(C)(C)C)cc1 [Formula 10] | 1000 to 3000 | 1000 to 3000 |  | 
Cc1ncsc1-c1ccc([C@H](C)NC(=O)[C@@H]2C[C@@H](O)CN2C(=O)[C@@H](NC(=O)CN2CCC(Oc3ccc(-c4ccc(N(C(=O)NCc5ccccc5)[C@H]5CC[C@H](Nc6ccc(C#N)cn6)CC5)cc4)cn3)CC2)C(C)(C)C)cc1 [Formula 11] | 100 to 500 | 500 to 1000 |  | 
Cc1ncsc1-c1ccc([C@H](C)NC(=O)[C@@H]2C[C@@H](O)CN2C(=O)[C@@H](NC(=O)CN2CCC(COc3ccc(-c4ccc(N(C(=O)NCc5ccccc5)[C@H]5CC[C@H](Nc6ccc(C#N)cn6)CC5)cc4)cn3)CC2)C(C)(C)C)cc1 [Formula 12] | 100 to 500 | 500 to 1000 |  | 
Cc1ncsc1-c1ccc([C@H](C)NC(=O)[C@@H]2C[C@@H](O)CN2C(=O)[C@@H](NC(=O)CC#CCCOc2ccc(-c3ccc(N(C(=O)NCc4ccccc4)[C@H]4CC[C@H](Nc5ccc(C#N)cn5)CC4)cc3)cn2)C(C)(C)C)cc1 [Formula 13] | 3000 to 10000 | 3000 to 10000 |  | 
Cc1ncsc1-c1ccc([C@H](C)NC(=O)[C@@H]2C[C@@H](O)CN2C(=O)[C@@H](NC(=O)CN2CC(Oc3ccc(-c4ccc(N(C(=O)NCc5ccccc5)[C@H]5CC[C@H](Nc6ccc(C#N)cn6)CC5)cc4)cn3)C2)C(C)(C)C)cc1 [Formula 14] |  | 3000 to 10000 | − | 
Cc1ncsc1-c1ccc([C@H](C)NC(=O)[C@@H]2C[C@@H](O)CN2C(=O)[C@@H](NC(=O)CC#Cc2ccc(-c3ccc(N(C(=O)NCc4ccccc4)[C@H]4CC[C@H](Nc5ccc(C#N)cn5)CC4)cc3)cn2)C(C)(C)C)cc1 [Formula 15] |  |  | − | −
Cc1ncsc1-c1ccc([C@H](C)NC(=O)[C@@H]2C[C@@H](O)CN2C(=O)[C@@H](NC(=O)CC#CCOc2ccc(-c3ccc(N(C(=O)NCc4ccccc4)[C@H]4CC[C@H](Nc5ccc(C#N)cn5)CC4)cc3)cn2)C(C)(C)C)cc1 [Formula 16] | 3000 to 10000 | 3000 to 10000 |  | 
Cc1ncsc1-c1ccc([C@H](C)NC(=O)[C@@H]2C[C@@H](O)CN2C(=O)[C@@H](NC(=O)CN2CCN(c3ccc(-c4ccc(N(C(=O)NCc5ccccc5)[C@H]5CC[C@H](Nc6ccc(C#N)cn6)CC5)cc4)cn3)CC2)C(C)(C)C)cc1 [Formula 71] | < 100 |  |  | 
Cc1ncsc1-c1ccc([C@H](C)NC(=O)[C@@H]2C[C@@H](O)CN2C(=O)[C@@H](NC(=O)CN2CCN(c3ccc(-c4ccc(N(C(=O)NCc5ccccc5)[C@H]5CC[C@H](Nc6ccc(C#N)cn6)CC5)cc4)cn3)CC2)C(C)(C)C)cc1 [Formula 72] | < 100 |  |  | 
Cc1ncsc1-c1ccc([C@H](C)NC(=O)[C@@H]2C[C@@H](O)CN2C(=O)[C@@H](NC(=O)CN2CCN(c3ccc(-c4ccc(N(C(=O)NCc5ccccc5)[C@H]5CC[C@H](Nc6ccc(C#N)cn6)CC5)cc4)cn3)CC2)C(C)(C)C)cc1 [Formula 74] | < 100 |  |  | 
Cc1ncsc1-c1ccc([C@H](C)NC(=O)[C@@H]2C[C@@H](O)CN2C(=O)[C@@H](NC(=O)CN2CCN(c3ccc(-c4ccc(N(C(=O)NCc5ccccc5)[C@H]5CC[C@H](Nc6ccc(C#N)cn6)CC5)cc4)cn3)CC2)C(C)(C)C)cc1 [Formula 75] | < 100 |  |  | 
Cc1ncsc1-c1ccc([C@H](C)NC(=O)[C@@H]2C[C@@H](O)CN2C(=O)[C@@H](NC(=O)CN2CCN(c3ccc(-c4ccc(N(C(=O)NCc5ccccc5)[C@H]5CC[C@H](Nc6ccc(C#N)cn6)CC5)cc4)cn3)CC2)C(C)(C)C)cc1 [Formula 76] | < 100 |  |  | 
Cc1ncsc1-c1ccc([C@H](C)NC(=O)[C@@H]2C[C@@H](O)CN2C(=O)[C@@H](NC(=O)CN2CCN(c3ccc(-c4ccc(N(C(=O)NCc5ccccc5)[C@H]5CC[C@H](Nc6ccc(C#N)cn6)CC5)cc4)cn3)CC2)C(C)(C)C)cc1 [Formula 77] | < 100 |  |  | 
Cc1ncsc1-c1ccc([C@H](C)NC(=O)[C@@H]2C[C@@H](O)CN2C(=O)[C@@H](NC(=O)CN2CCN(c3ccc(-c4ccc(N(C(=O)NCc5ccccc5)[C@H]5CC[C@H](Nc6ccc(C#N)cn6)CC5)cc4)cn3)CC2)C(C)(C)C)cc1 [Formula 78] | < 100 |  |  | 

— patent publication US20260327204A1, “DEGRADERS OF CYCLIN-DEPENDENT KINASE 12/13, COMPOSITIONS, AND USES THEREOF” (ZHEJIANG UNIVERSITY, priority 2023, published 2026)
